Source: article PMC9330042, “Synthesis and Biological Studies of Novel Aminophosphonates and Their Metal Carbonyl Complexes (Fe, Ru)” (International Journal of Molecular Sciences, 2022)

System: V79 cell line
Experiment: MTT cytotoxicity test
Assay type: cell-based, Cricetulus griseus
Details: V79 cells, 24 h, tested range 100–1000 µM; viability below 70% indicates cytotoxicity
Procedure: Cell viability below 70% indicates cytotoxicity.
V79 cells (Cricetulus griseus lung fibroblast cell line) (European Collection of Cell Culture) were grown in MEM (PAN-Biotech, Aidenbach, Germany) containing 2 mM glutamine (Sigma Aldrich, Darmstadt, Germany)), 1% non-essential amino acids (Biological Industries, Cromwell, U.S), 10% FBS (Biowest, Nuaillé, France), and 100 units/mL penicillin and […] (Biological Industries, Cromwell, U.S). Cells were plated and grown in an incubator at 37 °C with 5% CO2 to 80% confluence before the initiation of the assay.
V79 cells were seeded at a density of 1 × 10^4 cells per well and were incubated for 24 h. After 24 h, the medium was removed from the wells, and cells were exposed to the compound solutions over a range of concentrations or nothing but culture medium (blank control). Cells were further incubated for an additional 24 h. At the end, the medium was removed and MTT solution (0.75 mg/mL) was added. Next, plates were incubated in the dark for 2 h at 37 °C. Then, the MTT solution was removed and DMSO was added to each well. Plates were incubated for 10 min at room temperature. The absorbance at 570 nm was measured on a microplate reader. Cell viability was expressed as a percentage of the control values (blank).

| Structure (SMILES) | Cytotoxicity (in words) |
| --- | --- |
| CCOP(=O)(Cc1ccccc1CN)OCC [8a] | Non-toxic |
| CCOP(=O)(Cc1cccc(CN)c1)OCC [8b] | Non-toxic |
| CCOP(=O)(Cc1ccc(CN)cc1)OCC [8c] | Non-toxic |
